Laboratory results as given in US20250346569A1, “NEW DERIVATIVES FOR TREATING TRPM3 MEDIATED DISORDERS” (Katholieke Universiteit Leuven, priority 2022, published 2025).
pIC50: −log10 of the molar value.

The molecules below were run against T1, mouse TRPM3α2 (mTRPM3) ion channel (Mus musculus, UniProt J9SQF3) (assay: Monitoring the TRPM3 ion channel driven Ca2+ uptake (Fluo-4 AM assay)). Conditions: TRPM3 overexpressing flip-in HEK293 cells, channel stimulated with Pregnenolone sulfate (PS) 50 μM.
T1 construct: expressed in transfected cells; host or cells: flip-in HEK293
T1 sequence (J9SQF3 1-1709 isoform J9SQF3-12): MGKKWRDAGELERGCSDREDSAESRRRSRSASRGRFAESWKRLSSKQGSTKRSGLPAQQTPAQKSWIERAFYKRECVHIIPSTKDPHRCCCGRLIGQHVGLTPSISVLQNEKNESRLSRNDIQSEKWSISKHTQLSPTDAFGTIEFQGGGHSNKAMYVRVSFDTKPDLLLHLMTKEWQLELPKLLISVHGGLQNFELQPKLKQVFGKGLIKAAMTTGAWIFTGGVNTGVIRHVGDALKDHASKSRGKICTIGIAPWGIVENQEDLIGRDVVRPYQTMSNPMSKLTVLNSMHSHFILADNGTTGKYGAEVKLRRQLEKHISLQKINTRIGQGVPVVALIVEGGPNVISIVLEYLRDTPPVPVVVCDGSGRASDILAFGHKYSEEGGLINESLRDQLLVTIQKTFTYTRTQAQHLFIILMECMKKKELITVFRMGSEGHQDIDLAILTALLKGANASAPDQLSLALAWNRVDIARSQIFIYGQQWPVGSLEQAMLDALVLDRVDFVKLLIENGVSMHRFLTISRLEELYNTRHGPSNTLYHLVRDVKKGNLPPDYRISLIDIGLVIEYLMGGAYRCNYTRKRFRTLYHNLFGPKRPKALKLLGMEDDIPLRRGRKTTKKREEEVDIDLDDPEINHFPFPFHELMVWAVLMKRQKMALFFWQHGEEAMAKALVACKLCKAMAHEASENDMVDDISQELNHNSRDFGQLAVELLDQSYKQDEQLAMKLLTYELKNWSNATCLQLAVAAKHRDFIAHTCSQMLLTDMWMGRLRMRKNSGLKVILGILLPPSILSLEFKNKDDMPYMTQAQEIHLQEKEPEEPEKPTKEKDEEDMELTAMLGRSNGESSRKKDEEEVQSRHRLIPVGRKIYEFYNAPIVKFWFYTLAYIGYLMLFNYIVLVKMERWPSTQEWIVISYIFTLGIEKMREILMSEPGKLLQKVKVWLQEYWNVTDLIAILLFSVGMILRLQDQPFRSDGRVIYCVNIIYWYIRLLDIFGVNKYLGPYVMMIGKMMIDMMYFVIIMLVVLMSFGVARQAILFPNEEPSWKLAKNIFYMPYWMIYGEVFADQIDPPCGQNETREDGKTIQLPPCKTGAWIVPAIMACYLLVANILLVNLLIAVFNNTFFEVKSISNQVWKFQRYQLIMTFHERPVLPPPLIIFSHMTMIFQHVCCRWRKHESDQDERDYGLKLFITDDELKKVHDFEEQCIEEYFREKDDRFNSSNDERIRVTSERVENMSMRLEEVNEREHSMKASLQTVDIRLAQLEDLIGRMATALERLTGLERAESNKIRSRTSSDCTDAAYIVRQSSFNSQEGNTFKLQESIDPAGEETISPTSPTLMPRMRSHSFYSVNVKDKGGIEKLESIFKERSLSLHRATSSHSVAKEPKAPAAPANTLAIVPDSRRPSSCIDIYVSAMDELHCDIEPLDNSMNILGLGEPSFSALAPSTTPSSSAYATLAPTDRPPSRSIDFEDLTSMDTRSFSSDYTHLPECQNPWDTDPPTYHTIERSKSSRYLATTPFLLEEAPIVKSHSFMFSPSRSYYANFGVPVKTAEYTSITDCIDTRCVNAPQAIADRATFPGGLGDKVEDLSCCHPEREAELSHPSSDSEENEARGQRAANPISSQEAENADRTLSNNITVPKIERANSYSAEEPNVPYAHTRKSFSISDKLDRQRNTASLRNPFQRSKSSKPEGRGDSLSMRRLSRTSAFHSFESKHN
Type: cell-based
Procedure, shortened: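 Flp-In HEK293 cells overexpressing mTRPM3α2, loaded with Fluo-4 AM and added to wells holding compound plus 50 μM pregnenolone sulfate in Ca2+-containing Krebs buffer. Fluorescence (ex 485/em 535) read right after cell addition. Inhibition normalised to vehicle and positive-control inhibitor; IC50 derived.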

Compound | pIC50
Cc1ncsc1COc1ccc2sc(C)c(C(=O)NC3CN(C)CC3(F)F)c2c1 (stereo not shown) [Cpd 122, N-(4,4-difluoro-1-methylpyrrolidin-3-yl)-2-methyl-5-[(4-methyl-1,3-thiazol-5-yl)methoxy]-1-benzothiophene-3-carboxamide] | > 6.00
CN(C)CCNC(=O)c1c(C(F)F)sc2ccc(OCc3ccccc3)cc12 [Cpd 116, 5-(benzyloxy)-2-(difluoromethyl)-N-[2-(dimethylamino)ethyl]-1-benzothiophene-3-carboxamide] | 4.70 to 6.00
CN1CC(NC(=O)c2c(C(F)F)sc3ccc(OCc4ccccc4)cc23)C(F)(F)C1 (stereo not shown) [Cpd 119, 5-(benzyloxy)-N-(4,4-difluoro-1-methylpyrrolidin-3-yl)-2-(difluoromethyl)-1-benzothiophene-3-carboxamide] | 4.70 to 6.00
Cc1sc2ccc(OCc3cccnc3O)cc2c1C(=O)NC1(CO)CCC1 [Cpd 079, N-[1-(hydroxymethyl)cyclobutyl]-5-[(2-hydroxypyridin-3-yl)methoxy]-2-methyl-1-benzothiophene-3-carboxamide] | 4.70 to 6.00
O=C(O)c1c(C(F)F)sc2ccc(OCc3ccccc3)cc12 [Cpd 150, 5-(benzyloxy)-2-(difluoromethyl)-1-benzothiophene-3-carboxylic acid] | > 6.00
CCOC(=O)c1c(C)sc2ccc(OC)cc12 [Cpd 110, ethyl 5-methoxy-2-methyl-1-benzothiophene-3-carboxylate] | < 4.70
Cc1ncsc1COc1ccc2sc(C)c(C(=O)NCC3(N(C)C)CCCC3)c2c1 [Cpd 114, N-{[1-(dimethylamino)cyclopentyl]methyl}-2-methyl-5-[(4-methyl-1,3-thiazol-5-yl)methoxy]-1-benzothiophene-3-carboxamide] | > 6.00
Cc1sc2ccc(OCc3ccccc3)cc2c1C(=O)NC1CCOC1 (stereo not shown) [Cpd 096, 5-(benzyloxy)-2-methyl-N-(oxolan-3-yl)-1-benzothiophene-3-carboxamide] | > 6.00
Cc1sc2ccc(OCc3cccnc3C(F)(F)F)cc2c1C(=O)NCCN1CCOC1=O [Cpd 107, 2-methyl-N-[2-(2-oxo-1,3-oxazolidin-3-yl)ethyl]-5-{[2-(trifluoromethyl)pyridin-3-yl]methoxy}-1-benzothiophene-3-carboxamide] | 4.70 to 6.00
Cc1ncsc1COc1ccc2sc(C)c(C(=O)NC3CCN(C)CC3)c2c1 [Cpd 130, 2-methyl-5-[(4-methyl-1,3-thiazol-5-yl)methoxy]-N-(1-methylpiperidin-4-yl)-1-benzothiophene-3-carboxamide] | 4.70 to 6.00
Cc1sc2ccc(OCc3ccccn3)cc2c1C(=O)N[C@H](CO)C(N)=O [Cpd 057, (2R)-3-hydroxy-2-({2-methyl-5-[(pyridin-2-yl)methoxy]-1-benzothiophen-3-yl}formamido)propanamide] | > 6.00
CNC(=O)c1c(C)sc2ccc(OCc3cccnc3C(F)(F)F)cc12 [Cpd 136, N,2-dimethyl-5-{[2-(trifluoromethyl)pyridin-3-yl]methoxy}-1-benzothiophene-3-carboxamide] | > 6.00
Cc1sc2ccc(OCc3ccccn3)cc2c1C(=O)N[C@@H](C)C(N)=O [Cpd 008, (2S)-2-({2-methyl-5-[(pyridin-2-yl)methoxy]-1-benzothiophen-3-yl}formamido)propanamide] | > 6.00
CNC(=O)c1c(C)sc2ccc(OCc3scnc3C)cc12 [Cpd 137, N,2-dimethyl-5-[(4-methyl-1,3-thiazol-5-yl)methoxy]-1-benzothiophene-3-carboxamide] | 4.70 to 6.00
Cc1sc2ccc(OCc3cccnc3C(F)(F)F)cc2c1C(=O)NCC1CCC(=O)N1 (stereo not shown) [Cpd 103, 2-methyl-N-[(5-oxopyrrolidin-2-yl)methyl]-5-{[2-(trifluoromethyl)pyridin-3-yl]methoxy}-1-benzothiophene-3-carboxamide] | > 6.00
Cc1sc2ccc(OCc3ccccc3)cc2c1C(=O)NCC1CCC(=O)N1 (stereo not shown) [Cpd 102, 5-(benzyloxy)-2-methyl-N-[(5-oxopyrrolidin-2-yl)methyl]-1-benzothiophene-3-carboxamide] | 4.70 to 6.00
Cc1sc2ccc(OCc3ccccc3)cc2c1C(=O)NCCN(C)C [Cpd 115, 5-(benzyloxy)-N-[2-(dimethylamino)ethyl]-2-methyl-1-benzothiophene-3-carboxamide] | 4.70 to 6.00

Further lines, results first:

pIC50 | Compound
> 6.00 | Cc1ncc(COc2ccc3sc(C)c(C(=O)N[C@H](CO)C(N)=O)c3c2)s1 [Cpd 017, (2R)-3-hydroxy-2-({2-methyl-5-[(2-methyl-1,3-thiazol-5-yl)methoxy]-1-benzothiophen-3-yl}formamido)propanamide]
> 6.00 | Cc1sc2ccc(OCc3cccnc3O)cc2c1C(=O)NC(C)(C)C(N)=O [Cpd 066, 2-({5-[(2-hydroxypyridin-3-yl)methoxy]-2-methyl-1-benzothiophen-3-yl}formamido)-2-methylpropanamide]
> 6.00 | Cc1sc2ccc(OCc3ccccc3)cc2c1C(=O)NC(C)(C)C(N)=O [Cpd 062, 2-{[5-(benzyloxy)-2-methyl-1-benzothiophen-3-yl]formamido}-2-methylpropanamide]
> 6.00 | Cc1ncc(COc2ccc3sc(C)c(C(=O)NC(C)(C)C(N)=O)c3c2)s1 [Cpd 018, 2-methyl-2-({2-methyl-5-[(2-methyl-1,3-thiazol-5-yl)methoxy]-1-benzothiophen-3-yl}formamido)propanamide]
> 6.00 | Cc1nc(COc2ccc3sc(C)c(C(=O)NC(C)(CO)C(N)=O)c3c2)cs1 (single isomer, unassigned) [Cpd 015 - En1, 3-hydroxy-2-methyl-2-({2-methyl-5-[(2-methyl-1,3-thiazol-4-yl)methoxy]-1-benzothiophen-3-yl}formamido)propanamide]
> 6.00 | Cc1ncc(COc2ccc3sc(C)c(C(=O)N[C@@H](CO)C(N)=O)c3c2)s1 [Cpd 016, (2S)-3-hydroxy-2-({2-methyl-5-[(2-methyl-1,3-thiazol-5-yl)methoxy]-1-benzothiophen-3-yl}formamido)propanamide]
> 6.00 | Cc1ncc(COc2ccc3sc(C)c(C(=O)NC(C)(CO)C(N)=O)c3c2)s1 (single isomer, unassigned) [Cpd 019 - En2, 3-hydroxy-2-methyl-2-({2-methyl-5-[(2-methyl-1,3-thiazol-5-yl)methoxy]-1-benzothiophen-3-yl}formamido)propanamide]
> 6.00 | Cc1ncc(COc2ccc3sc(C)c(C(=O)NC4(C(N)=O)CCOC4)c3c2)s1 (stereo not shown) [Cpd 020, 3-{2-methyl-5-[(2-methyl-1,3-thiazol-5-yl)methoxy]-1-benzothiophene-3-amido}oxolane-3-carboxamide]
> 6.00 | Cc1ncsc1COc1ccc2sc(C)c(C(=O)NC(C)(C)C(N)=O)c2c1 [Cpd 031, 2-methyl-2-({2-methyl-5-[(4-methyl-1,3-thiazol-5-yl)methoxy]-1-benzothiophen-3-yl}formamido)propanamide]
> 6.00 | Cc1ncsc1COc1ccc2sc(C)c(C(=O)NC3(C(N)=O)COC3)c2c1 [Cpd 038, 3-{2-methyl-5-[(4-methyl-1,3-thiazol-5-yl)methoxy]-1-benzothiophene-3-amido}oxetane-3-carboxamide]
> 6.00 | CNC(=O)C(C)(CO)NC(=O)c1c(C)sc2ccc(OCc3cnc(C)s3)cc12 (single isomer, unassigned) [Cpd 132 - En2, 3-hydroxy-N,2-dimethyl-2-({2-methyl-5-[(2-methyl-1,3-thiazol-5-yl)methoxy]-1-benzothiophen-3-yl}formamido)propanamide]
